From patent publication US6486127B1, “Compositions comprising D-chiro inositol and lipid lowering compounds and methods of treatment thereof” (Insmed, Incorporated, priority 2001, dated 2002)
“Also recorded” adds a separate entry of the source.

What was measured:
[1] = Randomized placebo-controlled clinical trial of D-chiro-inositol with sulfonylureas: glycemic markers (HbA1c, fructosamine, fasting glucose); assay type: in vivo, human; settings: for Difference in HbA1c change between D-chiro-inositol and placebo: baseline to endpoint
Description: The objective of this study was to assess the efficacy and safety of D-chiro-inositol when administered as a single oral dose of 1200 mg/day compared to placebo, each in combination with sulfonylureas, for 3 months. Patients were required to have been on sulfonylureas for 3 months prior to study entry without reaching their target dose or with a suboptimal response.
(§1) This multicenter, double-blind, parallel-group, placebo-controlled, randomized, fixed-dose clinical study was designed to evaluate 1200 mg/day D-chiro-inositol versus placebo in 270 obese patients with type 2 diabetes mellitus who had been receiving sulfonylureas for at least 3 months without reaching their target or with suboptimal response.
(§2) The study involved 5 scheduled visits. The first visit was the screening visit, followed by a baseline visit up to 2 weeks later. Patients were randomized at the baseline visit, half to 1200 mg/day D-chiro-inositol and half to placebo, and subsequently began 13 weeks of treatment with blinded study medication. There were 3 visits for safety and efficacy assessments, at 4, 8, and 13 weeks after beginning treatment. The 13-week visit was the final visit. Patients arrived at the investigational site in a fasted state for all visits. Assessments were to be done at the same time of day at each visit by the same responsible personnel. Medication was taken once a day at the same time of morning, except on visit days, on which the dose was delayed until just after fasting blood samples had been collected.
Patients receiving D-chiro-inositol received four 300 mg capsules once daily for a total daily dose of 1200 mg; placebo patients took 4 placebo capsules once daily. Doses were taken orally, generally in the mornings. Patients were instructed to take their dose in the morning at the same time each day, except on visit days. On visit days, dosing was to be done at the clinic. No instructions were given regarding when to take medication in relation to meals on non-visit days.
(§3) Biomarkers: A meal tolerance test (MTT) was performed at baseline (Visit 2) and the final visit (Visit 5). In addition, blood was drawn at every visit for assessment of fasting glucose and insulin, HbA1c, C-peptide, fructosamine, FFA, triglycerides, total cholesterol, HDL, VLDL, LDL, and Apo-B levels.
Primary Efficacy Variable(s) and Analyses. The primary analysis was based on the change from baseline to endpoint in HbA1c level using the modified ITT and evaluable study populations. The analysis was done using an analysis of covariance (ANCOVA) model with treatment group and the baseline HbA1c value as predictors.
Secondary Efficacy Variable (s) and Analyses. Since all secondary efficacy parameters were continuous, they were analyzed in the same manner as described above for the primary efficacy parameter, with treatment group and baseline values for the relevant parameter used as predictors.

[2] = Same clinical trial: insulin during meal tolerance test (MTT); assay type: in vivo, human
Description: Changes in area-under-the-curve (AUC) and 120-minute insulin and glucose levels during the mcal tolerance test (MTT).
as §1, §2, §3
(§4) Secondary Efficacy Variable (s) and Analyses. Since all secondary efficacy parameters were continuous, they were analyzed in the same manner as described above for the primary efficacy parameter, with treatment group and baseline values for the relevant parameter used as predictors. These secondary efficacy parameters included:
AUC (and 120-minute) insulin and glucose levels during the MTT;

[3] = Same clinical trial: fasting serum lipids (cholesterol, LDL, Apo-B, FFA); assay type: in vivo, human
Description: Changes in levels of triglycerides, total cholesterol, high-density lipoproteins (HDL), low-density lipoproteins (LDL), very-low-density lipoproteins (VLDL), apolipoprotein B (Apo-B), and free fatty acids (FFA).
as §1, §2, §3, §4
Total cholesterol, triglycerides, HDL, LDL, VLDL, Apo-B, and FFA levels;

[4] = Subgroup analysis of the clinical trial: lipid lowering drug / D-chiro-inositol effects on LDL cholesterol; assay type: in vivo, human; settings: type 2 diabetic patients on sulfonylurea, with or without lipid lowering medication
Description: Due to the observation of lipid lowering effects seen in the DCI group, the clinical trial described in EXAMPLE 1 was further analyzed for synergistic interactions between D-chiro-inositol and lipid lowering medications. Certain patients within the trial were treated according to standard of care with HMC-CoA inhibitors (LIPITOR®, LESCOL®, ZOCOR®, MEVACOR®, PRAVACHOL®), gemfibrozil, or a combination of HMC-CoA and gemfibrozil. No inclusion or exclusion criteria were established for the efficacy of the lipid lowering drug efficacy in the patient population. As stated supra, these patients were being sub optimally treated with a sulfonylurea prior to beginning the clinical trial. The patients could not change their lipid lowering dose and/or regimen during the length of the study.

[5] = streptozotocin-treated rats, obese Zucker rats, or normal rats given a glucose load; cited from earlier work
[6] = oral or intravenous route; cited from earlier work
[7] = evaluable patients with FPG ≦ 180 mg/dL
[8] = patients with FPG ≦ 180 mg/dL, 1200 mg/day oral plus sulfonylurea
[9] = MTT, evaluable patients with FPG ≦ 180 mg/dL
[10] = MTT, evaluable patients, 1200 mg/day plus sulfonylurea
[11] = evaluable patients, 1200 mg/day plus sulfonylurea

With `OC1C(O)C(O)C(O)C(O)C1O` [D-chiro-inositol] the “Fasting glucose, mean change” value [1, 7] was 12.67 mg/dL, the “Fructosamine, mean change” value [1, 7] was -15.22 µmol/L and the “Decrease in mean HbA1c level from baseline to endpoint” value ([1]; evaluable patients with FPG≦180 mg/dL, stated as a decrease) was 0.53%. For the same molecule, the “Mean change in HbA1c from baseline to endpoint, mean (SD)” value ([1]; evaluable patients, LOCF at endpoint (13 weeks), 1200 mg/day oral plus sulfonylurea) was −0.16 (1.03) %, the “Difference in HbA1c change between D-chiro-inositol and placebo” value ([1]; evaluable population) was 0.36% and the “Decrease in mean fructosamine levels” value ([1]; evaluable population, p=0.159 vs placebo) was 5.32 µmol/L. For the same molecule, the “Decrease in mean HbA1c levels from baseline to endpoint” value ([1]; evaluable population, stated as a decrease) was 0.16%, the “Mean change in HbA1c from baseline to endpoint, mean (SD)” value ([1]; patients with FPG ≦ 180 mg/dL, LOCF at endpoint, 1200 mg/day oral plus sulfonylurea) was −0.53 (1.03) % and the “Mean change in HbA1c from baseline to Week 4, mean (SD)” value [1, 8] was −0.47 (0.68) %. The “Mean change in HbA1c from baseline to Week 8, mean (SD)” value [1, 8] was −0.57 (0.82) %, the “Difference in HbA1c change between D-chiro-inositol and placebo” value ([1]; patients with FPG≦180 mg/dL) was 0.80% and the “Change in insulin AUC from baseline to endpoint, median of individual subjects (FIG. 2)” value ([2]; DCI+SU group) was “slightly increased the insulin AUC”. The “120-min. insulin, mean change” value [2, 9] was 5.09 μU/mL, the “AUC insulin, mean change” value [2, 9] was 1070.8 μU/mL·hr and the “120-min. insulin, mean change at endpoint” value [2, 10] was 3.50 μU/mL. The “AUC insulin, mean change at endpoint” value [2, 10] was 484.4 μU/mL·hr, the “Insulin response to meal tolerance test over the treatment period (FIGS. 1A, 1B)” value ([2]; subjects with fasting blood glucose ≦180 mg/dl, DCI+SU, 13 weeks, listed as DCI) was “maintained this response after the 13 week course of treatment; also recorded: maintains a constant insulin response over the testing period” and the “Apo-B, mean change” value [3, 7] was -4.00 mg/dL. The “Cholesterol, mean change” value [3, 7] was -5.31 mg/dL, the “LDL, mean change” value [3, 7] was -4.14 mg/dL and the “Decrease in LDL” value ([3]; evaluable patients with FPG>180 mg/dL, p=0.036 vs placebo) was 2.02 mg/dL. The “Apo-B, mean change at endpoint” value [3, 11] was -1.26 mg/dL, the “Cholesterol, mean change at endpoint” value [3, 11] was -2.74 mg/dL and the “FFA, mean change at endpoint” value [3, 11] was −0.07 mEq/L. For the same molecule, the “LDL, mean change at endpoint” value [3, 11] was -2.95 mg/dL, the “Effect on LDL cholesterol (FIG. 3)” value [4] was “significantly reduced the increase of LDL cholesterol” and the Glycemic control [5] was “significantly improved glyceimic control”. For the same molecule, the “Disappearance rate of plasma glucose and insulin” value [6] was “significantly increased the disappearance rate of both plasma glucose and insulin”.
